One test has as its system N2a cells. The experiment in a line: Apoptosis assay in N2a cells under hypoxia. As to conditions: 5 μM Yoda1 three days, 1% hypoxia 24 h. Format: cell-based. As for the experimental part: Apoptosis assay in N2a cells. N2a cells were treated with 5 μM Yoda1 or vehicle for three consecutive days and exposed to 1% hypoxia as described above for 24 h before collecting the cells for apoptosis assay. The apoptotic cells were labeled with APC Annexin Ready Flow -dye (1:12.5 dilution, Invitrogen, Carlsbad, Calif., USA) in Annexin V Binding Buffer (10 mM HEPES, 150 mM NaCl, 2.5 mM CaCl2 in PBS, pH 7.4). 4′,6-Diamidino-2-Phenylindole, Dilactate (DAPI; Invitrogen, Carlsbad, Calif., USA) staining was added at 1:3300 dilution to label late apoptotic and necrotic cells. The samples were run with CytoFLEX S instrument (Beckman Coulter Life Sciences, Indianapolis, Ind., USA), and the results were analysed with CytExpert software (version 2.3.0.84, Beckman Coulter Life Sciences, Indianapolis, Ind., USA). The results of hypoxic samples were normalized to corresponding normoxic samples.

For test [1], the system named is 5xFAD transgenic mice modeling Alzheimer's disease. The experiment in a line: 5xFAD transgenic mice, intraventricular cannula infusion, immunohistochemistry for Iba1 and Aβ (WO2). The class given is in vivo, mouse. As to conditions: 5xFAD mice, treated for 2 weeks. The text has this:
To evaluate the effect of microglial Piezo1 Rs mechanosensor in vivo the present inventors used 5-month-old transgenic SXFAD male mice (Jackson Laboratories, Bar Harbor, Me., US) which were randomly divided into 3 groups. 5xFAD mice express human APP and PSEN1 transgenes with a total of five AD-linked mutations: the Swedish (K670N/M671L), Florida (1716V), and London (V7171) mutations in APP, and the M146L and L286V mutations in Presenilin-1 (PSEN1). These widely used mice recapitulate many AD-related phenotypes and have a relatively early and aggressive presentation. Amyloid plaques, accompanied by gliosis, are seen in mice as young as two months of age. Amyloid pathology is more severe in females than in males. Neuron loss occurs in multiple brain regions, beginning at about 5 months in the areas with the most pronounced amyloidosis. Mice display a range of cognitive and motor deficits. The animals were implanted with the intraventricular cannulas. Briefly, surgical anesthesia was induced using 5% isoflurane and maintained with 1.8% isoflurane (in 30% 02/70% N20). The temperature of the animals was maintained at 37±0.5° C. using a thermostatically controlled heating blanket with a rectal probe (Pan Lab, Harvard Apparatus). After the skull was exposed a small hole approximately 1 mm in diameter was drilled into the left hemisphere of the skull using following coordinates: m/l (medial/lateral) +1.1 mm, a/p (anterior/posterior) −0.3 mm, d/v (dorsal/ventral) −2.0 mm. […]
Brain sample preparation and Immunohistochemistry. […] Next, Aβ deposits and microglial were detected. […] For quantification of Aβ and Iba1 immunoreactivities, the stained sections were imaged using 10× magnification in Zeiss Axio ImagerM.2 microscope equipped with Axiocam 506 mono CCD camera (Carl Zeiss, Oberkochen) running ZEN software (Carl Zeiss) for tailing and stitching of the images. Cortical and hippocampal Aβ and Iba1 immunoreactivities were quantified from 6 stained sections at 400 μm intervals per animal using MatLab code (MathWorks, MatLab 2017b). […]

The mark [2] stands for this setting: 0.05 μg/μl, 5 μl infusion once a day.

For the compound `Clc1cccc(Cl)c1CSc1nnc(-c2cnccn2)s1` [Yoda1], in the test with N2a cells, the hypoxia-induced early apoptosis entry is on record as “almost completely block” and the hypoxia-induced late apoptosis entry is reported as “almost completely block”. The “microglial accumulation near the Aβ deposits” value in test [1] was “enhanced microglial accumulation”. Besides, in test [1] (setting [2]), the “Iba1 immunoreactivity in cortex and hippocampus” value is recorded as “significantly increased”; the “extent of brain Aβ load in cortex and hippocampi (WO2 staining)” value was “significant reduction”.

Source of the values: US20220265646A1, “PIEZO AGONISTS FOR PREVENTING OR REVERTING ABNORMAL AMYLOID DEPOSITION” (ITÄ-SUOMEN YLIOPISTO, priority 2019, published 2022).
